Assay results: patent publication US11166949B2, “NURR1 activation in the treatment of metabolic disorders and as an exercise mimetic” (The Board of Regents of the University of Texas System, priority 2016, dated 2021)
Entries after “also recorded” stand apart in the source; their conditions may differ.

Legend:
[1] = system: dopaminergic neurons in the substantia nigra pars compacta; conditions: MPTPp-treated mice, cited from earlier work
NF-κB = conditions: NF-κB-GFP reporter cells; cited from earlier work
BV-2 microglia = conditions: cited from earlier work
WT mice on HFD = test: Liver TRIG accumulation / hepatic steatosis in response to HFD; type: in vivo; conditions: for hepatic steatosis: WT mice on HFD
Method: (§1) Histology. WAT, BAT and liver were isolated and fixed in 4% paraformaldehyde (PFA) and processed for H&E staining. For oil red O staining, liver tissues were fixed in 4% PFA overnight, incubated in 12% sucrose for 12 hours then in 18% sucrose overnight before being cryoembedded and sectioned by the UT Southwestern Histology Core Facility. For skeletal muscle fiber analysis, tissues were frozen in liquid-nitrogen precooled isopentane, and 8 μm sections were used for H&E and fiber type staining. Plasma and tissue chemistry. Blood was collected using a 1 ml syringe coated in 0.5 M K2EDTA and serum collected by centrifugation for 20 min at 1000×g. Insulin and leptin levels were measured by ELISA. Serum triglycerides levels were measured using the Ortho Vitros 250 chemistry system. To measure triglyceride in the liver and skeletal muscle, tissue specimens were frozen immediately after isolation and pulverized in liquid nitrogen with a cell crusher. Serum and tissue triglyceride levels were measured by Mouse Metabolic Phenotyping Core Facility at University of Texas Southwestern Medical Center.

[2] = Metabolic cages (energy expenditure); type: in vivo; conditions: WT-HFD-AQ compared to WT mice, normalized to lean mass
mice on HFD = test: Glucose tolerance test and insulin tolerance test; type: in vivo
Method: Glucose uptake and insulin tolerance. Glucose tolerance test and insulin tolerance test were performed as previously described. For glucose tolerance test, mice were fasted for 6 hr and injected intraperitoneally with a glucose solution (0.15 g/ml, 158968 from Sigma-Aldrich, St. Louis, Mo.) at 1.5 g/kg body weight. Blood glucose concentrations were measured before and 15, 30, 60 and 90 min after glucose injection. For insulin tolerance test, mice […] for 6 hours were injected intraperitoneally with insulin (Human insulin 19278 from Sigma-Aldrich, St. Louis, Mo.) at 1.0 U/kg body weight. Blood glucose concentrations were measured before and 15, 30, 60 and 90 min after insulin injection.

[3] = Serum insulin and triglyceride levels; type: in vivo; conditions: WT-HFD-AQ vs WT-HFD mice, after 10 weeks on HFD, postprandial
Method: Plasma and tissue chemistry. Blood was collected using a 1 ml syringe coated in 0.5 M K2EDTA and serum collected by centrifugation for 20 min at 1000×g. Insulin and leptin levels were measured by ELISA. Serum triglycerides levels were measured using the Ortho Vitros 250 chemistry system. To measure triglyceride in the liver and skeletal muscle, tissue specimens were frozen immediately after isolation and pulverized in liquid nitrogen with a cell crusher. Serum and tissue triglyceride levels were measured by Mouse Metabolic Phenotyping Core Facility at University of Texas Southwestern Medical Center.

[4] = mouse, in vivo
ob/ob mice [5] = test: AQ treatment of leptin deficient (ob/ob) mice: body weight, food intake; type: in vivo
Method: Animals. Animals were housed in a pathogen free barrier facility with a 12 hour light/dark cycle and maintained on standard chow (2916 Teklad Global). The Nurr1 transcript was amplified from Invitrogen library with Nurr1-specific primers. Nurr1 was cloned into a plasmid containing the human skeletal muscle actin promoter and human GH (hGH) poly(A) signal. Nurr1 transgenic mice (referred as Nurr1-mTg) were backcrossed with C57/BL6J mice for more than four generations. C57BL/6J, ob/ob and db/db mice were obtained from Jackson Laboratories. Male mice were used in all experiments. For HFD (60% fat calories; D12492, Research Diet), mice were fed from the age of 5 weeks to the indicated times. Tissues were taken in the fed state except when otherwise mentioned. Drug treatments. […] Isoxazolo-pyridinone 7e (IP7e) was purchased from Millipore and dissolved in Tween 80 in a 10× stock solution. To obtain the final concentration (1×; 10 mg/kg) IP7e was dissolved in saline solution (0.9% NaCl). IP7e treatment by gavage was performed once a day. Control animals received the Tween 80 dissolved saline solution (0.9% NaCl, vehicle).

ob/ob mice [6] = test: Liver TRIG accumulation in ob/ob mice; type: in vivo
Method: as §1

Nurr1 = Nurr1 (Homo sapiens, UniProt P43354); conditions: cited from earlier work
Sequence of Nurr1 (P43354 whole entry): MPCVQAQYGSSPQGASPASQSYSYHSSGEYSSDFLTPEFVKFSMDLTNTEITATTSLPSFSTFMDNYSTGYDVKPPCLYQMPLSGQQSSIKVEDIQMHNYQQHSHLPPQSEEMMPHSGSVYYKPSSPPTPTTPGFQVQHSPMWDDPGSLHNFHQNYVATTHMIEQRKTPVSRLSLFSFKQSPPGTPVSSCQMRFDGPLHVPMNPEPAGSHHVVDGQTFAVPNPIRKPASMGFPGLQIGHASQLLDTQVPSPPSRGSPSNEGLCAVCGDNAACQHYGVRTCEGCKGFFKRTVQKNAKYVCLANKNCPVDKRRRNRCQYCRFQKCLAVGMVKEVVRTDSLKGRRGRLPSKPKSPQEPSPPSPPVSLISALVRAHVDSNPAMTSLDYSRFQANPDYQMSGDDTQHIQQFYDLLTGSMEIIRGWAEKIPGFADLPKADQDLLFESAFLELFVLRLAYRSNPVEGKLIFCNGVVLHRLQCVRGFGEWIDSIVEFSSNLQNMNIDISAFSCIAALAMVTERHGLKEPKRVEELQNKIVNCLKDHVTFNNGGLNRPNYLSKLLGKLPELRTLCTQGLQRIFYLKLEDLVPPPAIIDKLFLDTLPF

[7] = system: WT mice on normal chow and HFD; test: Nurr1 agonist treatment of WT mice on normal chow and HFD: weight gain, food intake, body composition, adipose histology; type: in vivo; conditions: for weight gain: WT mice on normal chow
Method: Animals. Animals were housed in a pathogen free barrier facility with a 12 hour light/dark cycle and maintained on standard chow (2916 Teklad Global). The Nurr1 transcript was amplified from Invitrogen library with Nurr1-specific primers. Nurr1 was cloned into a plasmid containing the human skeletal muscle actin promoter and human GH (hGH) poly(A) signal. Nurr1 transgenic mice (referred as Nurr1-mTg) were backcrossed with C57/BL6J mice for more than four generations. C57BL/6J, ob/ob and db/db mice were obtained from Jackson Laboratories. Male mice were used in all experiments. For HFD (60% fat calories; D12492, Research Diet), mice were fed from the age of 5 weeks to the indicated times. Tissues were taken in the fed state except when otherwise mentioned. Drug treatments. […] Isoxazolo-pyridinone 7e (IP7e) was purchased from Millipore and dissolved in Tween 80 in a 10× stock solution. To obtain the final concentration (1×; 10 mg/kg) IP7e was dissolved in saline solution (0.9% NaCl). IP7e treatment by gavage was performed once a day. Control animals received the Tween 80 dissolved saline solution (0.9% NaCl, vehicle). Histology. WAT, BAT and liver were isolated and fixed in 4% paraformaldehyde (PFA) and processed for H&E staining. For oil red O staining, liver tissues were fixed in 4% PFA overnight, incubated in 12% sucrose for 12 hours then in 18% sucrose overnight before being cryoembedded and sectioned by the UT Southwestern Histology Core Facility. For skeletal muscle fiber analysis, tissues were frozen in liquid-nitrogen precooled isopentane, and 8 μm sections were used for H&E and fiber type staining. Metabolic chambers and whole-body composition analysis. Metabolic phenotyping of WT and Nurr1-mTg mice on HFD was performed using TSE metabolic chamber analysis by the Mouse Metabolic Phenotyping Core Facility at University of Texas Southwestern Medical Center. Thirteen week old mice on HFD were placed in TSE metabolic chambers for an initial 5 days acclimation period, followed by a 4.5 days experimental period with data collection. Whole-body composition parameters were measured by magnetic resonance imaging (MRI) using a Bruker Minispec mq10 system.

[8] = system: chloroquine-resistant Plasmodium falciparum; conditions: chloroquine-resistant Plasmodium falciparum malaria infections; cited from earlier work
[9] = cited from earlier work
[10] = ob/ob mice on normal chow, AQ in drinking water, 4 weeks
[11] = WT-HFD-AQ compared to WT-HFD mice

Clc1ccc(C(c2c[nH]c3ccccc23)c2c[nH]c3ccccc23)cc1 [C-DIM12, 1,1-bis(3′-indolyl)-1-(p-chlorophenyl) methane]
neuroprotective activity ([1]; daily oral gavage): greatest neuroprotective activity
suppressing activation of microglia and astrocytes [1]: most potent compound
NF-κB activation (NF-κB): decreased
LPS-induced expression of NF-κB-regulated genes (NOS2, IL-6, CCL2) (BV-2 microglia): inhibited

CCN(CC)Cc1cc(Nc2ccnc3cc(Cl)ccc23)ccc1O [AQ, amodiaquine]
hepatic steatosis (WT mice on HFD; AQ): resistant to the hepatic steatosis; also recorded: prevents hepatic steatosis
decrease in hepatic TRIG levels (WT mice on HFD; WT-HFD-AQ mice vs WT on HFD): 50%
CO2 production [2]: significant increase
O2 consumption [2]: significant increase
glucose tolerance (mice on HFD; AQ): dramatic improvement
insulin tolerance (mice on HFD; AQ): dramatic improvement
serum insulin levels [3]: significantly lower
serum triglyceride levels [3]: significantly lower
toxic effects [4]: no toxic effects
body weight (ob/ob mice [5]; [10]): lose weight
weight gain (ob/ob mice [5]; [10]): resistant to weight gain
food intake (chow consumed) (ob/ob mice [5]; ob/ob mice, AQ 4 weeks): comparable quantities; also recorded: does not affect
decrease in Tg levels (liver) (ob/ob mice [6]; ob/ob mice treated with AQ compared to non treated mice, 4 weeks): 66%
liver TRIG accumulation / hepatic steatosis (ob/ob mice [6]; ob/ob mice treated with AQ, histological and biochemical analysis): significant decrease; also recorded: recovers hepatic steatosis ob/ob mice to normal levels
Nurr1 activation levels (Nurr1; among three compounds sharing a 4-amino-7-chloroquinoline scaffold): highest activation levels
obesity on HFD ([7]; WT mice on HFD, AQ in drinking water ad libitum, 10 weeks): completely prevented obesity; also recorded: confers resistance to obesity
body weights ([7]; WT mice on HFD, AQ in drinking water, 10 weeks): comparable to mice on normal chow
food consumption / food intake ([7]; WT mice on HFD, AQ vs control mice on HFD): no difference; also recorded: does not affect
weight gain ([7]; AQ in drinking water ad libitum, 10 weeks): no effect
adipocyte size in white adipose tissue [7, 11]: decreases
fat mass [7, 11]: significant decrease; also recorded: decreases
lean mass composition [7, 11]: increase
efficacy compared with chloroquine [8]: more effective than chloroquine

COCCOCc1ccc(-c2cc3onc(-c4ccccc4)c3c(=O)n2C)cc1 [IP7e, Isoxazolo-pyridinone 7e]
hepatic steatosis (WT mice on HFD; IP7e): resistant to the hepatic steatosis; also recorded: prevents hepatic steatosis
decrease in hepatic TRIG levels (WT mice on HFD; WT-HFD-IP7e mice): 48%
glucose handling (glucose tolerance) (mice on HFD; IP7e): improvement
Nurr1-dependent transcriptional activity (Nurr1): potent activator
obesity on HFD ([7]; WT mice on HFD, IP7e 10 mg/kg oral gavage once a day, 5 weeks): prevented obesity; also recorded: confers resistance to obesity
food consumption / food intake ([7]; WT mice on HFD, IP7e vs control mice on HFD): no difference
food consumption / food intake ([7]; WT mice on HFD, IP7e vs control mice on HFD, listed as IP7): does not affect
weight gain ([7]; IP7e 10 mg/kg oral gavage once a day, 5 weeks): no impact

CCN(CCO)CCCC(C)Nc1ccnc2cc(Cl)ccc12 (stereo not shown) [hydroxy-chloroquine]
glucose level ([9]; high doses, individuals with type 2 diabetes without autoimmune conditions, two clinical trials): lowers glucose level
risk of developing diabetes ([9]; patients with autoimmune inflammatory arthritis, three clinical observational studies): lower risk
